We go through 15 molecules from patent US20060142312A1, “C6-aryl and heteroaryl substituted pyrido[2,3-D] pyrimidin-7-ones” (PFIZER INC, priority 2004, published 2006).

Structures can show the parent of a compound that is named as a salt.

In the first series the test system is neointima formation. As to conditions: in rats; cited from earlier work.
For the molecule `COc1ccc(CNc2nc(N(CCO)CCO)nc3c2ncn3C(C)C)cc1` [CVT-313], the “inhibition of neointima formation” value is given as “greater than 80%”.

Test system in another series: not given
Conditions: not given
Turning to `Cc1cccc(Cc2cc3cnc(Nc4ccc(N5CCNCC5)cc4)nc3n(C3CCCC3)c2=O)c1` [Example 70, 8-Cyclopentyl-6-(3-methyl-benzyl)-2-(4-piperazin-1-yl-phenylamino)-8H-pyrido[2,3-d]pyrimidin-7-one], the melting point is 200 to 203 °C.

Take `CS(=O)(=O)N1CCC(Nc2ncc3cc(Cc4ccccc4)c(=O)n(C4CCCC4)c3n2)CC1` [Example 54, 6-Benzyl-8-cyclopentyl-2-(1-methanesulfonyl-piperidin-4-ylamino)-8H-pyrido[2,3-d]pyrimidin-7-one]: the melting point was in the range of 243 to 245 °C. Same read-out and setting: the same measure for `Cc1cccc(Cc2cc3cnc(NC4CCC(N(C)C)CC4)nc3n(C3CCCC3)c2=O)c1` (stereo not drawn) [Example 65, 8-Cyclopentyl-2-(4-dimethylamino-cyclohexylamino)-6-(3-methyl-benzyl)-8H-pyrido[2,3-d]pyrimidin-7-one]: 191 to 194 °C. As for `CC(C)c1ccc(Cc2cc3cnc(NC4CCC(N(C)C)CC4)nc3n(C3CCCC3)c2=O)cc1` (stereo not drawn) [Example 68, 8-Cyclopentyl-2-(4-dimethylamino-cyclohexylamino)-6-(4-isopropyl-benzyl)-8H-pyrido[2,3-d]pyrimidin-7-one], the melting point was 174 to 181 °C.

As to `O=c1c(Cc2ccccc2)cc2cnc(Nc3ccccc3)nc2n1C1CCCC1` [Example 44, 6-Benzyl-8-cyclopentyl-2-phenylamino-8H-pyrido[2,3-d]pyrimidin-7-one], the melting point lay in the range of 161 to 163 °C. Still for that read-out and setting: the same measure for `CS(=O)(=O)N1CCC(Nc2ncc3cc(Cc4ccccn4)c(=O)n(C4CCCC4)c3n2)CC1` [Example 27, 8-Cyclopentyl-2-(1-methanesulfonyl-piperidin-4-ylamino)-6-pyridin-2-ylmethyl-8H-pyrido[2,3-d]pyrimidin-7-one]: 220 to 223 °C; for `CCCN1CCC(Nc2ncc3cc(Cc4ccccc4)c(=O)n(C4CCCC4)c3n2)CC1` [Example 45, 6-Benzyl-8-cyclopentyl-2-(1-propyl-piperidin-4-ylamino)-8H-pyrido[2,3-d]pyrimidin-7-one]: 143 to 145 °C; for `O=c1c(Cc2ccccc2)cc2cnc(NCCCn3ccnc3)nc2n1C1CCCC1` [Example 50, 6-Benzyl-8-cyclopentyl-2-(3-imidazol-1-yl-propylamino)-8H-pyrido[2,3-d]pyrimidin-7-one]: 142 to 144 °C. The same measure, in the same setting: to `O=c1c(Cc2ccccc2)cc2cnc(NC3CCNCC3)nc2n1C1CCCC1` [Example 46, 6-Benzyl-8-cyclopentyl-2-(piperidin-4-ylamino)-8H-pyrido[2,3-d]pyrimidin-7-one] belongs 75 °C; to `Cc1c(Cc2ccccc2)c(=O)n(C2CCCC2)c2nc(Nc3ccc(N4CCNCC4)cc3)ncc12` [Example 29, 6-Benzyl-8-cyclopentyl-5-methyl-2-(4-piperazin-1-yl-phenylamino)-8H-pyrido[2,3-d]pyrimidin-7-one], 114 °C. The same measure, in the same setting: the same measure for `O=c1c(Cc2ccccn2)cc2cnc(NC3CCNCC3)nc2n1C1CCCC1` (as salt: TFA) [Example 26, 8-Cyclopentyl-2-(piperidin-4-ylamino)-6-pyridin-2-ylmethyl-8H-pyrido[2,3-d]pyrimidin-7-one]: 138 to 140 °C.

Molecule `CC(C)S(=O)(=O)N1CCC(Nc2ncc3cc(Cc4ccccn4)c(=O)n(C4CCCC4)c3n2)CC1` [Example 35, 8-Cyclopentyl-2-[1-(propane-2-sulfonyl)-piperidin-4-ylamino]-6-pyridin-2-ylmethyl-8H-pyrido[2,3-d]pyrimidin-7-one] showed a melting point of 216 to 219 °C. The same measure, in the same setting: to `CCCN1CCC(Nc2ncc3cc(Cc4cccc(C)c4)c(=O)n(C4CCCC4)c3n2)CC1` [Example 61, 8-Cyclopentyl-6-(3-methyl-benzyl)-2-(1-propyl-piperidin-4-ylamino)-8H-pyrido[2,3-d]pyrimidin-7-one] belongs 118 to 120 °C; to `CCCN1CCC(Nc2ncc3cc(Cc4ccccn4)c(=O)n(C4CCCC4)c3n2)CC1` [Example 88, 8-Cyclopentyl-2-(1-propyl-piperidin-4-ylamino)-6-pyridin-2-ylmethyl-8H-pyrido[2,3-d]pyrimidin-7-one], 133 to 134 °C.

As usually defined, the melting point is the temperature, or range, at which the solid turns liquid.
